Experimental data from patent US6686382B2, “Sulfonamides and derivatives thereof that modulate the activity of endothelin” (Encysive Pharmaceuticals Inc., priority 1999, dated 2004).
Where a name gives a salt, the structure may show the parent alone.

Legend:
human ETA receptors = molecular target: T1, human ETA receptors (Homo sapiens, UniProt P25101); assay: Endothelin binding inhibition, Binding Test #1: inhibition of binding to ETA receptors (TE 671 cell membranes); details: relative to N-(4-chloro-3-methyl-5-isoxazolyl)-2-{[3,4-(methylenedioxy)-6-methylphenyl)acetyl]-thiophene-3-sulfonamide (= 1.0)
T1 construct: endogenous in cells; host or cells: TE 671 cells (ATCC HTB 139), membrane preparation
T1 sequence (P25101 21-427): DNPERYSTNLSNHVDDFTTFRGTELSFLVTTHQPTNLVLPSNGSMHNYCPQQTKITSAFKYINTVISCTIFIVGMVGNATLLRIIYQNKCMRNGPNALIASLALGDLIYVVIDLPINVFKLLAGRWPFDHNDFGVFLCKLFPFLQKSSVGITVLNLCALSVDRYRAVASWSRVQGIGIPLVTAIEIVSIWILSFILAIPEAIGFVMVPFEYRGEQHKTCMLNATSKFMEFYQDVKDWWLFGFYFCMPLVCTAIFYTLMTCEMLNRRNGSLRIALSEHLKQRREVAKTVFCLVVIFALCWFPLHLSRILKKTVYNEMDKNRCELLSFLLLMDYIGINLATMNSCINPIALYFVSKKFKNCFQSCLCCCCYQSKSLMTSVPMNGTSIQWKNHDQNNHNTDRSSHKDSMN
From the text: Compounds that are potential endothelin antagonists are identified by testing their ability to compete with ^125I-labeled ET-1 for binding to human ETA receptors or ETB receptors present on isolated cell membranes. The effectiveness of the test compound as an antagonist or agonist of the biological tissue response of endothelin can also be assessed by measuring the effect on endothelin induced contraction of isolated rat thoracic aortic rings. The ability of the compounds to act as antagonists or agonists for ETB receptors can be assess by testing the ability of the compounds are to inhibit endothelin-1 induced prostacyclin release from cultured bovine aortic endothelial cells.
A. Endothelin Binding Inhibition—Binding Test #1: Inhibition of Binding to ETA Receptors
TE 671 cells (ATCC Accession No. HTB 139) express ETA receptors. These cells were grown to confluence in T-175 flasks. Cells from multiple flasks were collected by scraping, pooled and centrifugedfor 10 min at 190×g. The cells were resuspended in phosphate buffered saline (PBS) containing 10 mM EDTA using a Tenbroeck homogenizer. The suspension was centrifuged at 4° C. at 57,800×g for 15 min, the pellet was resuspended in 5 ml of buffer A (5 mM HEPES buffer, pH 7.4 containing aprotinin (100 KIU/ml)) and then frozen and thawed once. 5 ml of Buffer B (5 mM HEPES Buffer, pH 7.4 containing 10 mM MnCl2 and 0.001% deoxyribonuclease Type 1) was added, the suspension mixed by inversion and then incubated at 37° C. for 30 minutes. The mixture was centrifuged at 57,800×g as described above, the pellet washed twice with buffer A and then resuspended in buffer C (30 mM HEPES buffer, pH 7.4 containing aprotinin (100 KIU/ml) to give a final protein concentration of 2 mg/ml and stored at −70° C. until use.
The membrane suspension was diluted with binding buffer (30 mM HEPES buffer, pH 7.4 containing 150 mM NaCl, 5 mM MgCl2, 0.5% Bacitracin) to a concentration of 8 μg/50 μl. ^125I-endothelin-1 (3,000 cpm, […]) was added to 50 μL of either: (A) endothelin-1 (for non specific binding) to give a final concentration 80 nM); (B) binding buffer (for total binding); or (C) a test compound (final concentration 1 nM to 100 μM). The membrane suspension (50 μL), containing up to 8 μg of membrane protein, was added to each of (A), (B), or (C). Mixtures were shaken, and incubated at 4° C. for 16-18 hours, and then centrifuged at 4° C. for 25 min at 2,500×g. Alternatively, the incubation was conducted at 24° C. […] This, must be kept in mind when comparing IC50 concentrations among compounds provided herein.
The supernatant, containing unbound radioactivity, was decanted and the pellet counted on a Genesys multiwell gamma counter. The degree of inhibition of binding (D) was calculated according to the following equation: [formula]
Each test was generally performed in triplicate.

A melting point of 147 to 154 °C was found for Cc1cc(C)c(NC(=O)c2sccc2S(=O)(=O)Nc2onc(C)c2Cl)c(C(C)O)c1 (stereo not drawn) (as salt: Na) [Compound 18, 3-{[(4-chloro-3-methyl-5-isoxazolyl)amino]sulfonyl}-N-[2-(1-hydroxyethyl)-4,6-dimethylphenyl]-2-thiophene carboxamide] in this work.

For CC(=O)c1cc2c(cc1NC(=O)c1sccc1S(=O)(=O)Nc1onc(C)c1C)OCO2 [3-{[(3,4-dimethyl-5-isoxazolyl)amino]sulfonyl}-N-(2-acetyl-4,5-methylenedioxyphenyl)-2-thiophenecarboxamide], the “ETA ACTIVITY (ETA antagonist activity relative to reference compound)” value (human ETA receptors) was 0.05.

For Cc1cc(C)c(CC(=O)c2sccc2S(=O)(=O)Nc2onc(C)c2Cl)c(C)c1 [3-{[(4-chloro-3-methyl-5-isoxazolyl)amino]sulfonyl}-2-(2,4,6-trimethylphenylacetyl)thiophene], the “ETA ACTIVITY (ETA antagonist activity relative to reference compound)” value (human ETA receptors) was 6.4.

In the case of Cc1cc(C)c(NC(=O)c2sccc2S(=O)(=O)Nc2onc(C)c2Cl)c(C)c1 [3-{[(4-chloro-3-methyl-5-isoxazolyl)amino]sulfonyl}-N-(2,4,6-trimethylphenyl)-2-thiophenecarboxamide], the “ETA ACTIVITY (ETA antagonist activity relative to reference compound)” value (human ETA receptors) is reported as 2.4.

For CC(=O)c1cc2c(cc1NC(=O)c1sccc1S(=O)(=O)Nc1onc(C)c1Cl)OCO2 [3-{[(4-chloro-3-methyl-5-isoxazolyl)amino]sulfonyl}-N-(2-acetyl-4,5-methylenedioxyphenyl)-2-thiophenecarboxamide], the “ETA ACTIVITY (ETA antagonist activity relative to reference compound)” value (human ETA receptors) was 0.15.

With Cc1cc(C)c(NC(=O)c2sccc2S(=O)(=O)Nc2onc(C)c2Cl)c(C(N)=O)c1 [3-{[(4-chloro-3-methyl-5-isoxazolyl)amino]sulfonyl}-N-(2-carbamoyl-4,6-dimethylphenyl)-2-thiophenecarboxamide] the “ETA ACTIVITY (ETA antagonist activity relative to reference compound)” value (human ETA receptors) was 1.04.

With Cc1cc(C)c(NC(=O)c2sccc2S(=O)(=O)Nc2onc(C)c2Cl)c(C(=O)O)c1 [3-{[(4-chloro-3-methyl-5-isoxazolyl)amino]sulfonyl}-N-(2-carboxyl-4,6-dimethylphenyl)-2-thiophenecarboxamide] the “ETA ACTIVITY (ETA antagonist activity relative to reference compound)” value (human ETA receptors) was 0.05.

For COC(=O)c1c(C)cc(C)c(NC(=O)c2sccc2S(=O)(=O)Nc2onc(C)c2Cl)c1C [3-{[(4-chloro-3-methyl-5-isoxazolyl)amino]sulfonyl}-N-(3-methoxycarbonyl-2,4,6-trimethylphenyl)-2-thiophenecarboxamide], the “ETA ACTIVITY (ETA antagonist activity relative to reference compound)” value (human ETA receptors) was 4.7.

For Cc1cc(C)c(NC(=O)c2sccc2S(=O)(=O)Nc2onc(C)c2C)c(C#N)c1C [Compound 9, N-(2-cyano-3,4,6-trimethylphenyl)-3-{[(3,4-dimethyl-5-isoxazolyl)amino]sulfonyl}-2-thiophenecarboxamide], the “ETA ACTIVITY (ETA antagonist activity relative to reference compound)” value (human ETA receptors) was 18.6.

With Cc1cc(C)c(NC(=O)c2sccc2S(=O)(=O)Nc2onc(C)c2Cl)c(C(C)O)c1 (stereo not drawn) [Compound 18, 3-{[(4-chloro-3-methyl-5-isoxazolyl)amino]sulfonyl}-N-[2-(1-hydroxyethyl)-4,6-dimethylphenyl]-2-thiophene carboxamide] the “ETA ACTIVITY (ETA antagonist activity relative to reference compound)” value (human ETA receptors) was 26.4.

With Cc1cc(C)c(NC(=O)c2sccc2S(=O)(=O)Nc2onc(C)c2Cl)c(C(=O)N(C)C)c1 [Compound 20, 3-{[(4-chloro-3-methyl-5-isoxazolyl)amino]sulfonyl}-N-{2-[(dimethylamino)carbonyl]-4,6-dimethylphenyl)-2-thiophene carboxamide] the “ETA ACTIVITY (ETA antagonist activity relative to reference compound)” value (human ETA receptors) was 14.4.

With Cc1cc(C)c(NC(=O)c2sccc2S(=O)(=O)Nc2onc(C)c2Cl)c(C#N)c1C [Compound 32, 3-{[(4-chloro-3-methyl-5-isoxazolyl)amino]sulfonyl}-N-(2-cyano-3,4,6-trimethylphenyl)-2-thiophenecarboxamide] the “ETA ACTIVITY (ETA antagonist activity relative to reference compound)” value (human ETA receptors) was 55.7.
